These are literature values, as cited in patent US9182414B2, “Methods for identifying a GLP-1 secretagogue” (Arena Pharmaceuticals, Inc., priority 2005, dated 2015).

This data set deals with T1, BRS-3 (Homo sapiens, UniProt P32247).
T1 sequence (P32247 1-399): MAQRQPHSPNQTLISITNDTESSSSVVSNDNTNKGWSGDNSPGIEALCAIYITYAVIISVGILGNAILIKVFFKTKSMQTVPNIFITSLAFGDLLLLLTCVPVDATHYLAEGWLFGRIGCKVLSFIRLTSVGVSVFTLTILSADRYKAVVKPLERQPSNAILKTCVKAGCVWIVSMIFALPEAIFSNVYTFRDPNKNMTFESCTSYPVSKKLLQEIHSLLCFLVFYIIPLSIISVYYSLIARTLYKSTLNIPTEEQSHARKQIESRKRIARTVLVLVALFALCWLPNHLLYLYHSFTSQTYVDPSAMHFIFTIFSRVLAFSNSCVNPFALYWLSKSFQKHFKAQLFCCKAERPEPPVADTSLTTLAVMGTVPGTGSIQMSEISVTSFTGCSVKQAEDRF
As to conditions: BRS-3 over GRP-R and NMB-R; description taken from literature.

Consider “[D-Tyr^6,βAla^11,Phe^13,Nle^14]Bombesin(6-14) [Compound 34]”, for which the “selectivity as BRS-3 agonist” value was “non-selective for BRS-3 over GRP-R and NMB-R”.
